# From patent US6581606B2, “Method, apparatus and system for use in treating patient with a drug having an antineoplastic effect to optimize therapy and prevent an adverse drug response” (The Rx Files Corporation, priority 1999, dated 2003)
# Conditions: human, in vivo
# Method: A current dose of Taxol (paclitaxel) is 375 mg.
# In this case, the prescriber would use the following information for the patient receiving Taxol: Current Dose 375 mg; Current Marker 660 (a unitless marker indicative of the current platelet count); Desired Marker 1,200 (a unitless marker indicative of where the prescriber wants to see the platelet count raised to); Previous Marker 640 (a unitless marker indicative of the patient's previous ANC).
structure (smiles),measurement,value
"CC(=O)O[C@H]1C(=O)[C@@]2(C)[C@H]([C@H](OC(=O)c3ccccc3)[C@]3(O)C[C@H](OC(=O)[C@H](O)[C@@H](NC(=O)c4ccccc4)c4ccccc4)C(C)=C1C3(C)C)[C@]1(OC(C)=O)CO[C@@H]1C[C@@H]2O [Taxol, paclitaxel]",Previous Marker (patient's previous ANC),640
